Source: US20100158808A1, “Altered Activity of Toll-Like Receptors” (priority 2003, published 2010)

Legend:
[1] = Loss of HS from spleen tissue after intrasplenic injection (immunopathology); format: in vivo, mice; conditions: within 5 hours of injection
Experimental: Immunopathology. After intraperitoneal (i.p.) injection of ketamine and xylazine, murine spleens were directly visualized through an incision in the lateral abdominal wall and injected with 100 μl of PBS containing 0.1 U of elastase or PBS alone. Five hours later, the spleen was harvested and pieces snap-frozen. Tissue sections were prepared and stained as previously described (Dempsey et al. supra) with the several modifications. In particular, secondary and tertiary antibodies were mouse serum (Jackson ImmunoResearch Laboratories, West Grove, Pa.) preabsorbed and diluted in M.O.M. diluent (Vector Laboratories, Burlingame, Calif.). Fluorescent images were converted to grayscale using SPOT software (Diagnostic Instruments, Sterling Heights, Mich.).
To determine whether elastase liberates HS in vivo, spleen tissues were harvested from mice that had been injected intrasplenically with the enzyme, and the tissues were tested for the presence of HS. […] Thus, pancreatic elastase can induce loss of HS proteoglycan from tissues in vivo.

TLR4 = biological target: T1, TLR4 (Mus musculus, UniProt Q9JHF9+Q9QUK6); assay: TNF-α secretion by dendritic cells (APC) cocultured with PAEC, ELISA; format: cell-based; conditions: cocultures of PAEC and murine APCs, TLR4-positive or -negative
T1 sequence (Q9QUK6 26-835): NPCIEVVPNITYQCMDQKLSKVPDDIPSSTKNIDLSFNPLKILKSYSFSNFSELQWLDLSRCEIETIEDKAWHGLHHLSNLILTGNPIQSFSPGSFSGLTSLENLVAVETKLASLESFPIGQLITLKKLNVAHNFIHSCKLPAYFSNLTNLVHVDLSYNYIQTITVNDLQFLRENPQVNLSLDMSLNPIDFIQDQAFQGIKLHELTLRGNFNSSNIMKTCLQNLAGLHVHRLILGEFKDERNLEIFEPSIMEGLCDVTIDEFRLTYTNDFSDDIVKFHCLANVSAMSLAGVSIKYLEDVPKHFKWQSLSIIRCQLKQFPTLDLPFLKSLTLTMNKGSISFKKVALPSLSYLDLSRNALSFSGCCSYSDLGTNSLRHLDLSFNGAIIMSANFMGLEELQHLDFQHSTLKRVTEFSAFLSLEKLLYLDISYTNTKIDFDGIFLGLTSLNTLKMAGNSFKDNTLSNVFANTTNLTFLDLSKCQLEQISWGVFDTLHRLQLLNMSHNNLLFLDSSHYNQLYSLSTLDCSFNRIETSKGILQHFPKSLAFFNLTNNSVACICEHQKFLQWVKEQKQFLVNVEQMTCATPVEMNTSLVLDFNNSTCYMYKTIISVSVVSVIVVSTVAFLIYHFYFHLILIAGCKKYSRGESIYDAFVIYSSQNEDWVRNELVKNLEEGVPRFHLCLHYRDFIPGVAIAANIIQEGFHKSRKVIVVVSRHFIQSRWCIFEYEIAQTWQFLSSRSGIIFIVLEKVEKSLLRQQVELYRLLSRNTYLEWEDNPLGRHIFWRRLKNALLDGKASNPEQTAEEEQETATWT
T1 sequence (Q9JHF9 19-160): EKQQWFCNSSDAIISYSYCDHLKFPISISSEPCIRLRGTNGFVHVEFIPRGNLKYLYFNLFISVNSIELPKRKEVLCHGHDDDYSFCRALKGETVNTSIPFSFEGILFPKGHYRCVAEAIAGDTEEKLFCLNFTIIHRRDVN
Experimental: Cell Isolation and Culture. Dendritic cells were generated from murine bone marrow cultures as previously described (Kodaira et al. (2000) J. Immunol. 165:1599). At day 6 or 7 of culture, nonadherent cells and loosely adherent proliferating dendritic cell aggregates were harvested for analysis or stimulation. PAEC were cultured to confluence and their identity was confirmed as previously described (Ryan and Maxwell (1986) J. Tissue Cult. Methods 10:3).
Cell Culture Stimulation. Dendritic cells (2×10^6 per ml) cocultured with confluent monolayers of PAEC in 96-well plates were stimulated with 10 μg/ml chondroitin sulfate, 500 ng/ml CpG DNA, 10 ng/ml LPS, 10 μg/ml HS, 50 μg/ml zymosan, or PBS, unless otherwise indicated. To control for purity, agonists were pretreated with END-X B15, or mixed with Limulus anti-LPS factor before stimulation of cells, as indicated. In some experiments, agonists were boiled before use for 60 minutes at 100° C.
Cytokine Quantification. Age-matched female mice were injected in the peritoneum with 0.5 U of elastase, 5 mg of HS, 200 U of heparin, 150 μg of CpG DNA, or PBS with a total volume of 250 μl. One hour and 3 hours after injection, 100-μl blood samples were collected from the tail vein. […] Concentrations of TNF-α were analyzed by enzyme-linked sandwich ELISA (R&D Systems, Minneapolis, Minn.). […]

| Substance | Loss of HS from blood vessels of spleen [1] | TNF-α secretion by APC (TLR4) |
| --- | --- | --- |
| elastase: pancreatic elastase (Calbiochem; type IV porcine pancreatic elastase, Sigma-Aldrich), protease that cleaves ECM proteins | lost HS from blood vessels at the injection site | secreted TNF-α in a TLR4-dependent manner |
| heparan sulfate [HS] | – | secreted TNF-α in a TLR4-dependent manner |
